Results from patent publication US10597388B2, “Pyridazinone herbicides” (FMC CORPORATION, priority 2014, dated 2020).

What was measured:
Assay type in all cases: in vivo
rice (Oryza sativa) = test: Test B flooded paddy test; conditions: 250 g ai/ha, Flood; visual rating on scale of 0 to 100 where 0 is no effect and 100 is complete control; 13 to 15 d after treatment
Experimental: (§1) Plant species in the flooded paddy test selected from rice (Oryza sativa), sedge, umbrella (small-flower umbrella sedge, Cyperus difformis), ducksalad (Heteranthera limosa), and barnyardgrass (Echinochloa crus-galli) were grown to the 2-leaf stage for testing. At time of treatment, test pots were flooded to 3 cm above the soil surface, treated by application of test compounds directly to the paddy water, and then maintained at that water depth for the duration of the test. Treated plants and controls were maintained in a greenhouse for 13 to 15 d, after which time all species were compared to controls and visually evaluated. Plant response ratings, summarized in Table B, are based on a scale of 0 to 100 where 0 is no effect and 100 is complete control. A dash (-) response means no test result.

[1] = test system: sedge, umbrella (small-flower umbrella sedge, Cyperus difformis); test: Test B flooded paddy test; conditions: 250 g ai/ha, Flood; visual rating on scale of 0 to 100 where 0 is no effect and 100 is complete control; 13 to 15 d after treatment
Experimental: as §1

[2] = test system: barnyardgrass (Echinochloa crus-galli); test: Test B flooded paddy test; conditions: 250 g ai/ha, Flood; visual rating on scale of 0 to 100 where 0 is no effect and 100 is complete control; 13 to 15 d after treatment
Experimental: as §1

[3] = test system: ducksalad (Heteranthera limosa); test: Test B flooded paddy test; conditions: 250 g ai/ha, Flood; visual rating on scale of 0 to 100 where 0 is no effect and 100 is complete control; 13 to 15 d after treatment
Experimental: as §1

kochia (Kochia scoparia) = test: Test A greenhouse herbicide test, pre- and postemergence
Text: (§2) Seeds of plant species selected from barnyardgrass (Echinochloa crus-galli), kochia (Kochia scoparia), ragweed (common ragweed, Ambrosia elatior), ryegrass, Italian (Italian ryegrass, Lolium multiflorum), crabgrass, large (large crabgrass, Digitaria sanguinalis), foxtail, giant (giant foxtail, Setaria faberii), momingglory (Ipomoea spp.), pigweed (Amaranthus retroflexus), velvetleaf (Abutilon theophrasti), wheat (Triticum aestivum), and corn (Zea mays) were planted into a blend of loam soil and sand and treated preemergence with a directed soil spray using test chemicals formulated in a non-phytotoxic solvent mixture which included a surfactant.
(§3) At the same time, plants selected from these crop and weed species and also blackgrass (Alopecurus myosuroides), and galium (catchweed bedstraw, Galium aparine) were planted in pots containing the same blend of loam soil and sand and treated with postemergence applications of test chemicals formulated in the same manner. Plants ranged in height from 2 to 10 cm and were in the one- to two-leaf stage for the postemergence treatment. Treated plants and untreated controls were maintained in a greenhouse for approximately 10 d, after which time all treated plants were compared to untreated controls and visually evaluated for injury. Plant response ratings, summarized in Table A, are based on a 0 to 100 scale where 0 is no effect and 100 is complete control. A dash (-) response means no test result.

[4] = test system: ragweed (common ragweed, Ambrosia elatior); test: as above
Text: as §2, §3

[5] = test system: foxtail, giant (giant foxtail, Setaria faberii); test: as above
Text: as §2, §3

[6] = test system: barnyardgrass (Echinochloa crus-galli); test: as above
Text: as §2, §3

[7] = test system: pigweed (Amaranthus retroflexus); test: as above
Text: as §2, §3

[8] = test system: ryegrass, Italian (Italian ryegrass, Lolium multiflorum); test: as above
Text: as §2, §3

[9] = test system: wheat (Triticum aestivum); test: as above; conditions: Postemergence; for Wheat plant response rating: 0 to 100 scale, 0 is no effect, 100 is complete control
Text: as §2, §3

corn (Zea mays) = test: as above; conditions: Postemergence; for Corn plant response rating: 0 to 100 scale, 0 is no effect, 100 is complete control
Text: as §2, §3

[10] = test system: blackgrass (Alopecurus myosuroides); test: Test A greenhouse herbicide test, postemergence; conditions: for Blackgrass plant response rating: 0 to 100 scale, 0 is no effect, 100 is complete control
Text: as §3

[11] = test system: galium (catchweed bedstraw, Galium aparine); test: Test A greenhouse herbicide test, postemergence; conditions: for Galium plant response rating: 0 to 100 scale, 0 is no effect, 100 is complete control
Text: as §3

[12] = Postemergence, 125 g ai/ha, 0 to 100 scale where 0 is no effect and 100 is complete control
[13] = Postemergence, 500 g ai/ha, 0 to 100 scale, 0 is no effect, 100 is complete control
[14] = Preemergence, 125 g ai/ha, 0 to 100 scale where 0 is no effect and 100 is complete control
[15] = Preemergence, 500 g ai/ha, 0 to 100 scale where 0 is no effect and 100 is complete control
[16] = 125 g ai/ha, 0 to 100 scale where 0 is no effect and 100 is complete control
[17] = Postemergence, 1000 g ai/ha, 0 to 100 scale, 0 is no effect, 100 is complete control
[18] = Preemergence, 1000 g ai/ha, 0 to 100 scale, 0 no effect, 100 complete control

What does the source list for `Cc1sc2ccccc2c1-c1c(OC(=O)OC(C)C)c(Cl)nn(C)c1=O` [Compound 94]?
Plant response rating, Rice (rice (Oryza sativa)): 0; Plant response rating, Sedge, Umbrella [1]: 0; Plant response rating, Barnyardgrass [2]: 0; Plant response rating, Ducksalad [3]: 0; Plant response rating, Kochia (kochia (Kochia scoparia); [12]): 30; Kochia plant response rating (kochia (Kochia scoparia); [13]): 60; Kochia plant response rating (kochia (Kochia scoparia); [14]): 30; Plant response rating, Kochia (kochia (Kochia scoparia); [15]): 70; Plant response rating, Ragweed [4, 12]: 10; Ragweed plant response rating [4, 13]: 60; Ragweed plant response rating [4, 14]: 50; Plant response rating, Ragweed [4, 15]: 80; Plant response rating, Foxtail, Giant [5, 12]: 30; Foxtail, Giant plant response rating [5, 13]: 50; Foxtail, Giant plant response rating [5, 14]: 20; Plant response rating, Foxtail, Giant [5, 15]: 50; Plant response rating, Barnyardgrass [6, 12]: 0; Barnyardgrass plant response rating [6, 13]: 40; Barnyardgrass plant response rating [6, 14]: 0; Plant response rating, Barnyardgrass [6, 15]: 40; Plant response rating, Pigweed [7, 12]: 30; Pigweed plant response rating [7, 13]: 70; Pigweed plant response rating [7, 14]: 70; Plant response rating, Pigweed [7, 15]: 90; Plant response rating, Ryegrass, Italian [8, 12]: 30; Ryegrass, Italian plant response rating [8, 13]: 50; Ryegrass, Italian plant response rating [8, 14]: 20; Plant response rating, Ryegrass, Italian [8, 15]: 50; Plant response rating, Wheat [9, 16]: 0; Wheat plant response rating ([9]; 500 g ai/ha): 20; Plant response rating, Corn (corn (Zea mays); [16]): 0; Corn plant response rating (corn (Zea mays); 500 g ai/ha): 0; Plant response rating, Blackgrass [10, 16]: 0; Blackgrass plant response rating ([10]; 500 g ai/ha): 30; Plant response rating, Galium [11, 16]: 80; Galium plant response rating ([11]; 500 g ai/ha): 90

With `COC(=O)COc1c(C)nn(C)c(=O)c1-c1cccc2ccccc12` [Compound 182] as the compound, how does the “Kochia plant response rating” value (kochia (Kochia scoparia); [17]) read?
The value was 0.

What about the “Plant response rating, Kochia” value (kochia (Kochia scoparia); [18]) of the same compound?
Its value is 0.

What about the “Ragweed plant response rating” value [4, 17] of the same compound?
The value was 30.

And the “Plant response rating, Ragweed” value [4, 18]?
Its value is 0.

What about the “Foxtail, Giant plant response rating” value [5, 17] of the same compound?
Its value is 0.

And the “Plant response rating, Foxtail, Giant” value [5, 18]?
The value was 0.

What about the “Barnyardgrass plant response rating” value [6, 17] of the same compound?
The value was 0.

And the “Plant response rating, Barnyardgrass” value [6, 18]?
Its value is 0.

What about the “Pigweed plant response rating” value [7, 17] of the same compound?
The value was 0.

What about the “Plant response rating, Pigweed” value [7, 18] of the same compound?
Its value is 0.

What about the “Ryegrass, Italian plant response rating” value [8, 17] of the same compound?
Its value is 0.

And the “Plant response rating, Ryegrass, Italian” value [8, 18]?
Its value is 0.

What about the “Wheat plant response rating” value ([9]; 1000 g ai/ha) of the same compound?
The value was 0.

What about the “Corn plant response rating” value (corn (Zea mays); 1000 g ai/ha) of the same compound?
Its value is 0.

What about the “Blackgrass plant response rating” value ([10]; 1000 g ai/ha) of the same compound?
Its value is 10.

What about the “Galium plant response rating” value ([11]; 1000 g ai/ha) of the same compound?
Its value is 50.

For `CC(=O)COc1c(C)nn(C)c(=O)c1-c1cccc2ccccc12` [Compound 178], which “Kochia plant response rating” value (kochia (Kochia scoparia); [17]) is on record?
Its value is 10.

What about the “Plant response rating, Kochia” value (kochia (Kochia scoparia); [18]) of the same compound?
The value was 0.

What about the “Ragweed plant response rating” value [4, 17] of the same compound?
Its value is 60.

What about the “Plant response rating, Ragweed” value [4, 18] of the same compound?
Its value is 0.

And the “Foxtail, Giant plant response rating” value [5, 17]?
The value was 0.

What about the “Plant response rating, Foxtail, Giant” value [5, 18] of the same compound?
Its value is 0.

And the “Barnyardgrass plant response rating” value [6, 17]?
Its value is 0.

And the “Plant response rating, Barnyardgrass” value [6, 18]?
Its value is 0.

What about the “Pigweed plant response rating” value [7, 17] of the same compound?
Its value is 70.

What about the “Plant response rating, Pigweed” value [7, 18] of the same compound?
Its value is 0.

And the “Ryegrass, Italian plant response rating” value [8, 17]?
Its value is 70.

What about the “Plant response rating, Ryegrass, Italian” value [8, 18] of the same compound?
The value was 60.

What about the “Wheat plant response rating” value ([9]; 1000 g ai/ha) of the same compound?
Its value is 0.

What about the “Corn plant response rating” value (corn (Zea mays); 1000 g ai/ha) of the same compound?
Its value is 0.

What about the “Blackgrass plant response rating” value ([10]; 1000 g ai/ha) of the same compound?
Its value is 30.

And the “Galium plant response rating” value ([11]; 1000 g ai/ha)?
Its value is 70.
